Laboratory results reported in PMC4769034 (Journal of medicinal chemistry, 2015).
≈ marks a conversion by molar mass, not a printed value.

Tests used:
CYP450 enzymes = settings: cited from earlier work
hERG = settings: cited from earlier work
PDEs = settings: cited from earlier work
plasma leptin = settings: 50 mg/kg by oral gavage for 3 weeks; cited from earlier work
[1] = no reference given; cited from earlier work
[2] = cited from earlier work
[3] = tested on: Middle East respiratory syndrome coronavirus (MERS-Cov); settings: cited from earlier work
MIA PaCa-2 cells = settings: 10 mg/kg via i.p. injection for 3 weeks; cited from earlier work
PKA = settings: cited from earlier work
[4] = tested on: pancreatic ductal adenocarcinoma (PDA) cells; settings: cited from earlier work
[5] = cited from earlier work; remark: listed apart in the source
rickettsial infection = settings: mouse, in vivo; cited from earlier work
[6] = Solubility in ethanol by HPLC analysis; settings: vs compound 1
[7] = Solubility in water by HPLC analysis

| SMILES | inhibitory activity toward CYP450 enzymes (CYP450 enzymes) | inhibitory activity toward hERG (hERG) | inhibitory effects on PDEs (PDEs) | plasma leptin (plasma leptin) | membrane permeability [1] | toxicity to animals [2] | MERS-CoV viral yields [3] | metastasis to the liver (MIA PaCa-2 cells) | effect toward PKA (PKA) | PDA cell migration and invasion [4] | effect on PDA cell proliferation and viability [4] | bioavailability [5] | survival after rickettsial infection (rickettsial infection) | fold improvement of solubility in ethanol in comparison with 1 [6] | fold improvement of solubility in water in comparison with 1 ([7]; vs compound 1) | solubility at 24 h ([7]; water) |
| --- | --- | --- | --- | --- | --- | --- | --- | --- | --- | --- | --- | --- | --- | --- | --- | --- |
| CC(C)(C)c1cc(C(=O)/C(C#N)=N/Nc2cccc(Cl)c2)no1 [Compound 1, 2-(5-tert-butylisoxazol-3-yl)-N′-(3-chlorophenyl)-2-oxoacetohy-drazonoyl cyanide] | very weak inhibitory activities | very weak inhibitory activities | no significant inhibitory effects | significantly reduces plasma leptin | good membrane permeability | low toxicity | significantly reduce viral yields | significantly decrease metastasis to the liver | no effect | significant decrease | no obvious effect | excellent bioavailability | dramatically improved survival | – | – | – |
| CC(C)(C)c1cc(C(=O)/C(C#N)=N/Nc2cc(C(F)(F)F)cc(C(F)(F)F)c2)no1 [Compound 25, N′-(3,5-Bis(trifluoromethyl)phenyl)-2-(5-tert-butylisoxazol-3-yl)-2-oxoacetohydrazonoyl Cyanide] | – | – | – | – | – | – | – | – | – | – | – | – | – | ~10 fold | approximately 70 fold | 418 ± 17.3 µg/mL (≈ 968 µM) |
